Data from patent US9422297B2, “Tricyclic compounds having cytostatic and/or cytotoxic activity and methods of use thereof” (Duquesne University of the Holy Ghost, priority 2007, dated 2016).

Assays:
EGFR kinase = EGFR kinase (Homo sapiens (Human), UniProt P00533); assay: EGFR kinase inhibition; assay type: biochemical; conditions: Table 3; read-out: EGFR kinase
COLO 205 = assay: NCI In-Vitro Testing, Colon Cancer; assay type: cell-based
BT-549 = assay: NCI In-Vitro Testing, Breast Cancer; assay type: cell-based
RXF 399 = assay: NCI In-Vitro Testing, Renal Cancer; assay type: cell-based
EKVX = assay: NCI In-Vitro Testing, Non-Small Cell Lung Cancer; assay type: cell-based
RPMI-8226 = assay: NCI In-Vitro Testing, Leukemia; assay type: cell-based
SF-295 = assay: NCI In-Vitro Testing, CNS Cancer; assay type: cell-based
B16-F10 tumors = assay: B16-F10 tumor model in vivo; conditions: athymic mice, 25 mg/kg three times weekly, vs methotrexate and sham
U251 = assay: NCI In-Vitro Testing, CNS Cancer; assay type: cell-based
UACC-257 = assay: NCI In-Vitro Testing, Melanoma; assay type: cell-based
CAKI-1 = assay: NCI In-Vitro Testing, Renal Cancer; assay type: cell-based
PC-3 = assay: NCI In-Vitro Testing, Prostate Cancer; assay type: cell-based
T-47D = assay: NCI In-Vitro Testing, Breast Cancer; assay type: cell-based
MCF7 = assay: NCI In-Vitro Testing, Breast Cancer; assay type: cell-based
SF-258 = assay: NCI In-Vitro Testing, CNS Cancer; assay type: cell-based
AS45/ATCC = assay: NCI In-Vitro Testing, Non-Small Cell Lung Cancer; assay type: cell-based
A498 = assay: NCI In-Vitro Testing, Renal Cancer; assay type: cell-based
KM12 = assay: NCI In-Vitro Testing, Colon Cancer; assay type: cell-based
LOXIMVI = assay: NCI In-Vitro Testing, Melanoma; assay type: cell-based

EGFR kinase, sequence (P00533 25-1210): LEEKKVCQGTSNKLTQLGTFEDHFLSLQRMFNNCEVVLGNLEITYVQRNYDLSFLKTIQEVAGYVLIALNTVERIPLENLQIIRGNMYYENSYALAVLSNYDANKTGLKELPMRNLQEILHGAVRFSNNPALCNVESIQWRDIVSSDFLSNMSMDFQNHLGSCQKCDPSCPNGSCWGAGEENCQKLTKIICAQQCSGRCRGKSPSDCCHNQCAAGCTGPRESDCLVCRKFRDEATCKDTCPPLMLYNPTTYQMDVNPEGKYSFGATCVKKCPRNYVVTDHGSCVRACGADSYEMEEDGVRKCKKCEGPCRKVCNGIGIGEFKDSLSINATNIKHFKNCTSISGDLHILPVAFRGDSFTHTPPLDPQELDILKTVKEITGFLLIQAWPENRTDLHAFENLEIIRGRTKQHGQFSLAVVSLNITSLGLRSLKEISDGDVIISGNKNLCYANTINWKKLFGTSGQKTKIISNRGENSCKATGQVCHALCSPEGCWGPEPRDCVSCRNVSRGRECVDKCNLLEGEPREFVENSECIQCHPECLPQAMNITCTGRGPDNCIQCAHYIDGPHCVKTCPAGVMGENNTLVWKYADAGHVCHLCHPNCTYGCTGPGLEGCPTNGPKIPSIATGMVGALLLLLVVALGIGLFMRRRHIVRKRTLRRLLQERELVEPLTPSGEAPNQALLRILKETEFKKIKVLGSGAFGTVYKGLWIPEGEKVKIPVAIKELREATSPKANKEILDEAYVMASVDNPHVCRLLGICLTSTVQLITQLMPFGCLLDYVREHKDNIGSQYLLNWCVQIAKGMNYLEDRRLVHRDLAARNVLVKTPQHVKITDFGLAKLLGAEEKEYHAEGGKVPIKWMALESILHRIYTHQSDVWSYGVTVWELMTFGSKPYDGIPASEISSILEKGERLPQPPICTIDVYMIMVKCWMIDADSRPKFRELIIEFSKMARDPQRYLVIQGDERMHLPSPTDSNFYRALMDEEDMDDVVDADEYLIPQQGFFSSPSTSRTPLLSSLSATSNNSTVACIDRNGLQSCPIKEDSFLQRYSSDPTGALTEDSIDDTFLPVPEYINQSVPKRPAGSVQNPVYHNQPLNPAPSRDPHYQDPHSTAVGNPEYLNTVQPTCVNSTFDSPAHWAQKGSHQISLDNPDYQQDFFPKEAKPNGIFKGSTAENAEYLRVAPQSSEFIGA

## Nc1nc2c(c(Nc3ccc(Cl)cc3)n1)-c1ccccc1C2 [AAG145-136]
EGFR kinase
  IC50: 26 µM
COLO 205
  GI50: 6.38E−7 Molar
  LC50: >1.00E−4 Molar
  TGI: >1.00E−4 Molar
COLO 205; Log10 Concentration −4.0 Molar
  Percent Growth: 11%
COLO 205; Log10 Concentration −5.0 Molar
  Percent Growth: 11%
COLO 205; Log10 Concentration −6.0 Molar
  Percent Growth: 41%
COLO 205; Log10 Concentration −7.0 Molar
  Percent Growth: 86%
COLO 205; Log10 Concentration −8.0 Molar
  Percent Growth: 99%
BT-549
  GI50: 2.83E−6 Molar
  LC50: >1.00E−4 Molar
  TGI: 7.58E−5 Molar
BT-549; Log10 Concentration −4.0 Molar
  Percent Growth: −4%
BT-549; Log10 Concentration −5.0 Molar
  Percent Growth: 32%
BT-549; Log10 Concentration −6.0 Molar
  Percent Growth: 65%
BT-549; Log10 Concentration −7.0 Molar
  Percent Growth: 85%
BT-549; Log10 Concentration −8.0 Molar
  Percent Growth: 103%
RXF 399
  GI50: 1.20E−5 Molar
  LC50: >1.00E−4 Molar
  TGI: 6.26E−5 Molar
RXF 399; Log10 Concentration −4.0 Molar
  Percent Growth: −14%
RXF 399; Log10 Concentration −5.0 Molar
  Percent Growth: 56%
RXF 399; Log10 Concentration −6.0 Molar
  Percent Growth: 91%
RXF 399; Log10 Concentration −7.0 Molar
  Percent Growth: 107%
RXF 399; Log10 Concentration −8.0 Molar
  Percent Growth: 108%
EKVX
  GI50: 2.71E−8 Molar
  LC50: >1.00E−4 Molar
  TGI: >1.00E−4 Molar
EKVX; Log10 Concentration −4.0 Molar
  Percent Growth: 4%
EKVX; Log10 Concentration −5.0 Molar
  Percent Growth: 26%
EKVX; Log10 Concentration −6.0 Molar
  Percent Growth: 68%
EKVX; Log10 Concentration −7.0 Molar
  Percent Growth: 68%
EKVX; Log10 Concentration −8.0 Molar
  Percent Growth: 101%
RPMI-8226
  GI50: 4.89E−7 Molar
  LC50: >1.00E−4 Molar
  TGI: >1.00E−4 Molar
RPMI-8226; Log10 Concentration −4.0 Molar
  Percent Growth: 7%
RPMI-8226; Log10 Concentration −5.0 Molar
  Percent Growth: 11%
RPMI-8226; Log10 Concentration −6.0 Molar
  Percent Growth: 32%
RPMI-8226; Log10 Concentration −7.0 Molar
  Percent Growth: 89%
RPMI-8226; Log10 Concentration −8.0 Molar
  Percent Growth: 96%
SF-295
  GI50: 5.47E−7 Molar
  LC50: >1.00E−4 Molar
  TGI: >1.00E−4 Molar
SF-295; Log10 Concentration −4.0 Molar
  Percent Growth: 17%
SF-295; Log10 Concentration −5.0 Molar
  Percent Growth: 20%
SF-295; Log10 Concentration −6.0 Molar
  Percent Growth: 34%
SF-295; Log10 Concentration −7.0 Molar
  Percent Growth: 95%
SF-295; Log10 Concentration −8.0 Molar
  Percent Growth: 105%
B16-F10 tumors
  antitumor activity (tumor volume, tumor growth rate): potent antitumor activity
U251
  GI50: 1.84E−7 Molar
  LC50: >1.00E−4 Molar
  TGI: 5.66E−5 Molar
U251; Log10 Concentration −4.0 Molar
  Percent Growth: −6%
U251; Log10 Concentration −5.0 Molar
  Percent Growth: 19%
U251; Log10 Concentration −6.0 Molar
  Percent Growth: 29%
U251; Log10 Concentration −7.0 Molar
  Percent Growth: 53%
U251; Log10 Concentration −8.0 Molar
  Percent Growth: 98%
UACC-257
  GI50: 6.45E−8 Molar
  LC50: >1.00E−4 Molar
  TGI: >1.00E−4 Molar
UACC-257; Log10 Concentration −4.0 Molar
  Percent Growth: 6%
UACC-257; Log10 Concentration −5.0 Molar
  Percent Growth: 21%
UACC-257; Log10 Concentration −6.0 Molar
  Percent Growth: 33%
UACC-257; Log10 Concentration −7.0 Molar
  Percent Growth: 46%
UACC-257; Log10 Concentration −8.0 Molar
  Percent Growth: 102%
CAKI-1
  GI50: 1.08E−6 Molar
  LC50: >1.00E−4 Molar
  TGI: >1.00E−4 Molar
CAKI-1; Log10 Concentration −4.0 Molar
  Percent Growth: 15%
CAKI-1; Log10 Concentration −5.0 Molar
  Percent Growth: 25%
CAKI-1; Log10 Concentration −6.0 Molar
  Percent Growth: 51%
CAKI-1; Log10 Concentration −7.0 Molar
  Percent Growth: 97%
CAKI-1; Log10 Concentration −8.0 Molar
  Percent Growth: 105%
PC-3
  GI50: 7.15E−7 Molar
  LC50: >1.00E−4 Molar
  TGI: 7.99E−5 Molar
PC-3; Log10 Concentration −4.0 Molar
  Percent Growth: −2%
PC-3; Log10 Concentration −5.0 Molar
  Percent Growth: 18%
PC-3; Log10 Concentration −6.0 Molar
  Percent Growth: 40%
PC-3; Log10 Concentration −7.0 Molar
  Percent Growth: 111%
PC-3; Log10 Concentration −8.0 Molar
  Percent Growth: 104%
T-47D
  GI50: 2.90E−6 Molar
  LC50: >1.00E−4 Molar
  TGI: >1.00E−4 Molar
T-47D; Log10 Concentration −4.0 Molar
  Percent Growth: 27%
T-47D; Log10 Concentration −5.0 Molar
  Percent Growth: 34%
T-47D; Log10 Concentration −6.0 Molar
  Percent Growth: 63%
T-47D; Log10 Concentration −7.0 Molar
  Percent Growth: 83%
T-47D; Log10 Concentration −8.0 Molar
  Percent Growth: 88%
MCF7
  GI50: 7.34E−8 Molar
  LC50: >1.00E−4 Molar
  TGI: 1.41E−5 Molar
MCF7; Log10 Concentration −4.0 Molar
  Percent Growth: −26%
MCF7; Log10 Concentration −5.0 Molar
  Percent Growth: 5%
MCF7; Log10 Concentration −6.0 Molar
  Percent Growth: 17%
MCF7; Log10 Concentration −7.0 Molar
  Percent Growth: 45%
MCF7; Log10 Concentration −8.0 Molar
  Percent Growth: 63%
SF-258
  GI50: 8.62E−8 Molar
  LC50: >1.00E−4 Molar
  TGI: >1.00E−4 Molar
SF-258; Log10 Concentration −4.0 Molar
  Percent Growth: 21%
SF-258; Log10 Concentration −5.0 Molar
  Percent Growth: 19%
SF-258; Log10 Concentration −6.0 Molar
  Percent Growth: 27%
SF-258; Log10 Concentration −7.0 Molar
  Percent Growth: 45%
SF-258; Log10 Concentration −8.0 Molar
  Percent Growth: 104%
AS45/ATCC
  GI50: 4.34E−8 Molar
  LC50: >1.00E−4 Molar
  TGI: >1.00E−4 Molar
AS45/ATCC; Log10 Concentration −4.0 Molar
  Percent Growth: 7%
AS45/ATCC; Log10 Concentration −5.0 Molar
  Percent Growth: 15%
AS45/ATCC; Log10 Concentration −6.0 Molar
  Percent Growth: 21%
AS45/ATCC; Log10 Concentration −7.0 Molar
  Percent Growth: 33%
AS45/ATCC; Log10 Concentration −8.0 Molar
  Percent Growth: 30%
A498
  GI50: 2.49E−6 Molar
  LC50: >1.00E−4 Molar
  TGI: 2.85E−5 Molar
A498; Log10 Concentration −4.0 Molar
  Percent Growth: −17%
A498; Log10 Concentration −5.0 Molar
  Percent Growth: 14%
A498; Log10 Concentration −6.0 Molar
  Percent Growth: 74%
A498; Log10 Concentration −7.0 Molar
  Percent Growth: 91%
A498; Log10 Concentration −8.0 Molar
  Percent Growth: 101%
KM12
  GI50: 3.30E−7 Molar
  LC50: >1.00E−4 Molar
  TGI: >1.00E−4 Molar
KM12; Log10 Concentration −4.0 Molar
  Percent Growth: 5%
KM12; Log10 Concentration −5.0 Molar
  Percent Growth: 7%
KM12; Log10 Concentration −6.0 Molar
  Percent Growth: 25%
KM12; Log10 Concentration −7.0 Molar
  Percent Growth: 77%
KM12; Log10 Concentration −8.0 Molar
  Percent Growth: 98%
LOXIMVI
  GI50: 3.08E−7 Molar
  LC50: >1.00E−4 Molar
  TGI: >1.00E−4 Molar
LOXIMVI; Log10 Concentration −4.0 Molar
  Percent Growth: 15%
LOXIMVI; Log10 Concentration −5.0 Molar
  Percent Growth: 11%
LOXIMVI; Log10 Concentration −6.0 Molar
  Percent Growth: 16%
LOXIMVI; Log10 Concentration −7.0 Molar
  Percent Growth: 52%
LOXIMVI; Log10 Concentration −8.0 Molar
  Percent Growth: 106%
